Consider one substance from US9062095B2, “Mutant double cyclized receptor peptides inhibiting β1-adrenoceptor antibodies” (JULIUS-MAXIMILIANS-UNIVERSTITAT-WURZBURG, priority 2007, dated 2015).

Experiment [1] concerns beta1-ECII receptor antibody-titers. Nature of the experiment: in vivo therapy study cyc22AA versus cyc18AA Cys/Ser in rats immunized over 8 months: antibody-titers. The conditions noted are these: injections every 4 weeks, start at month 8; mean ±SEM (FIG. 28A). Set-up: species or system rat. The text has this: FIGS. 28A and B depict the in vivo blocking (=neutralization) capacity of two cysteine-containing 18AA or 22AA cyclopeptide-mutants of the second extracellular loop (ECII) of the human beta1-adrenergic receptor upon therapeutic injection of the different constructs into rats regularly immunized since 8 months (first=basic immunization followed by 7 antigen-boosts every 4 weeks). The effects of four to five subsequent cyclopeptide-injections every 4 weeks are shown. FIG. 28A depicts the mean values±SEM of each of the treated groups of immunized beta1-ECII-antibody positive cardiomyopathic rats (animal number per group is given in the legend). […] The remaining receptor antibody-titers after each injection in % of the antibody-titers at start therapy (month 8) are depicted (columns). Error bars indicate ±SEM. Numbers in columns indicate the number of (subsequent) monthly injection.
FIG. 28B depicts the time course of antibody-titers after 4 subsequent cyclopeptide-injections, determined before and 20-22 hours after application of the indicated constructs. Values are given in percent of increase or decrease in the respective antibody-titers after each cyclopeptide-injection compared with the antibody-titer determined at start of therapy (month 8). […]

Experiment [2] relates to anti-beta1-ECII antibody-secreting cells (ASC). The experiment can be described thus: ELISPOT-assay with B-cells from bone marrow or spleen of prophylactically treated rats. Conditions: prophylactically treated versus untreated immunized rats, n=3-4 (FIG. 13). The class given is in vivo, rat. Here is the method:
Cys/Ser, horizontally hatched columns). For the assays, ELIspot plates were coated overnight with the specific antigen (GST/beta1-ECII-FP) in 0.05 mol/1 Tris buffer, pH 9.4.; then the plates were washed 3 times and blocked with BSA for 3 hours at 37° C. Subsequently, the plates were incubated overnight at 37° C. with B-cells from either spleen or bone marrow (cultured in RPMI 1640/X-VIVO-15 medium supplemented with 10% fetal calf serum (FCS)) with 1×10^6 to 1×10^3 cells per well. After 12 hours the B-cells were discarded and the plates with the B-cell secreted IgG bound were washed several times (PBS/0.5° A) Tween) before the addition of alkaline phos-phatase conjugated secondary anti-rat IgG (0.3 μg/ml) to detect bound rat IgG. Then the plates were incubated for another 3 hours at 37° C., washed several times with PBS/0.5% Tween, and developed using LMP/BICP 5:1 (1 ml per well; “LMP” means low melting agarose, and “BICP” means 5-bromo-4-chloro-3-indolyl phosphate p-toluidine salt, a blue-colored dye) allowing for a quantification of the blue spots obtained, with each spot representing an antigen-specific IgG secreting spleen or bone-marrow cell.
This finding was confirmed by ELIspot analysis of bone marrow and spleen cell preparations of selected cyclopeptide-treated versus untreated immunized rats (n=3).

Experiment [3] deals with beta1-receptor antibodies. The experiment can be described thus: in vivo prevention study: five prophylactic peptide applications, serum antibody-titers by ELISA. Conditions: 1.0 mg/kg body weight i.v., 4-weekly, prevention protocol (FIG. 12). Set-up: species or system rat. The procedure, abridged: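 Immunized, antibody-positive rats got 1.0 mg/kg i.v. peptide five times at 4-week intervals from month 3, two weeks after each monthly antigen boost. Sera were taken before and 18-20 h post-injection and tested by ELISA against the linear 25AA Cys/Cys peptide. Titers are % of untreated regularly immunized rats.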

Experiment [4] has as its system rats with antibody-induced immune-cardiomyopathy. The experiment can be described thus: in vivo therapy study: cardioprotective effect (echocardiography, hemodynamics, organ weights). Details: species or system rat. An excerpt: FIG. 17.A is a diagram showing the time course (month 0 to 20) of the internal end-systolic and end-diastolic left ventricular diameters (LVES, LVED) of GST/β1-ECII-immunized un-treated (black circles) versus GST/β1-ECII-immunized animals treated with the indicated various cyclopeptides (see legend) as determined by echocardiography (echocardiographic system: Visual Sonics, Vevo 770 (version V2.2.3), equipped with a 15-17.5 MHz transducer), whereby LVES/LVED is left ventricular end-systolic diameter/left ventricular end-diastolic diameter.
FIG. 17.B is a similar diagram showing the time course (month 0 to 20) of the internal end-systolic and end-diastolic left ventricular diameters (LVES, LVED) of GST/β1-ECII-immunized untreated (black circles) versus GST/β1-ECII-immunized animals, treated with different concentrations of the 18AA Cys/Ser cyclopeptide mutant (see legend).
FIG. 19A is a diagram depicting the time course (month 0 to 20) of the “Cardiac index” (CI) in ml/min/g (body weight) as determined by echocardiography (echocardiographic system see legend to FIG. 17a.).
The latter doses were almost equally efficient in terms of both, neutralization of circulating receptor antibodies (FIGS. 16b and c), and reversal of antibody-induced cardiomyopathic features (FIGS. 17b, 19b, 20, and 21b).

Positions of bridges follow the written chain, without caps; N, C: chain ends.

In the case of “Cyclo-Ala-Asp-Glu-Ala-Arg-Arg-Cys-Tyr-Asn-Asp-Pro-Lys-Cys-Ser-Asp-Phe-Val-Gln (cyclo(ADEARRCYNDPKCSDFVQ); disulfide 7-13; SMILES CC(C)[C@@H]1NC(=O)[C@H](Cc2ccccc2)NC(=O)[C@H](CC(=O)O)NC(=O)[C@H](CO)NC(=O)[C@@H]2CSSC[C@H](NC(=O)[C@H](CCCNC(=N)N)NC(=O)[C@H](CCCNC(=N)N)NC(=O)[C@H](C)NC(=O)[C@H](CCC(=O)O)NC(=O)[C@H](CC(=O)O)NC(=O)[C@H](C)NC(=O)[C@H](CCC(N)=O)NC1=O)C(=O)N[C@@H](Cc1ccc(O)cc1)C(=O)N[C@@H](CC(N)=O)C(=O)N[C@@H](CC(=O)O)C(=O)N1CCC[C@H]1C(=O)N[C@@H](CCCCN)C(=O)N2) [18AA Cys/Ser mutant (Gln-)cyclopeptide, disulphide bond Cys7-Cys13, ring closure Ala1-Gln18]”, the “antibody-titer remaining after 4 injections in percent of the titer at start of therapy” value in experiment [1] is given as 76.0±23.0%. Moreover, in experiment [2], the “number of specific anti-beta1-ECII antibody-secreting cells (ASC) in spleen and bone marrow” value is “significant decrease”. For the same substance, the “antibody-titer decrease after 5 injections, compared with untreated immunized animals” value in experiment [3] came out at 54.5±2%. Also, the “achieved cardioprotective effect compared with 1.0 or 2.0 mg/kg” value in experiment [4] (0.25 mg/kg Bw, repeated injections every 4 weeks) is recorded as “clearly less efficient”. Besides, the “cardioprotective effects compared with 1.0 or 2.0 mg/kg” value in experiment [4] (4.0 mg/kg body weight, repeated injections every 4 weeks) is recorded as “did not result in higher efficiency”. Moreover, the “reversal of antibody-induced cardiomyopathic features” value in experiment [4] (1.0 or 2.0 mg/kg Bw (FIGS. 17B, 19B, 20, 21B)) is given as “best cardioprotection”.
